Measured values taken from patent US20100160219A1, “Novel Polypeptides Inducing Dendritic Cell Migration, as Well as Medicines and Pharmaceutical Compositions Containing Same” (priority 2006, published 2010).

How the values were obtained:
dendritic cells = assay: In vitro assay of dendritic cell migration; type: cell-based; conditions: cells incubated 24 hours with the fraction or polypeptide, then migration towards MIP-3β; ESAs at final dilution 1:20; index relative to untreated control
Method: The migration assay involves preliminary incubation of dendritic cells with the polypeptide or fraction to be tested, and 24 hours later the cells are washed and loaded onto the upper part of a migration chamber, the lower part containing the chemokine MIP3-β. The cells that have migrated from the upper compartment to the lower compartment are counted, and migration is quantified by determining the percentage they represent of the number of cells that were initially loaded into the upper chamber. The activity of a polypeptide corresponds to the percentage of cells that have migrated.
After 4 to 6 days of differentiation, the cells obtained are frozen in liquid nitrogen and can be stored for several years.
The dendritic cells are thawed and cultured in RPMI medium with 5% FCS, gentamicin, GM-CSF and TNFα to obtain interstitial dendritic cells. […] The cells are counted 48 hours later and 300,000 cells are placed in each Falcon culture tube in a volume of 300 μl. […] After 24 hours, the tubes are recovered, and the cells are counted and resuspended in the culture medium with 1% bovine serum albumin. • 6. […]
After 24 hours, the inserts are removed and the cells that crossed them and are at the bottom of the wells are recovered and counted. The results are expressed as the percentage of cells relative to the number originally placed in the insert. […]

[1] = test system: Langerhans cells and dendritic cells; assay: In vivo migration-inducing assay in mice (ear application, auricular lymph nodes); conditions: mouse, 5 μl of 25 mg/ml in DMSO on left ear, 24 hours
Method: The peptide of SEQ ID NO.16 was also tested in vivo in mice in a migration-inducing assay. In order to do this, a population of mice was used in which the EGFP gene is introduced in front of the gene for Langerin, which makes Langerhans cells naturally fluorescent. The gene encoding CCR6 is also disrupted in these mice but normal numbers of Langerhans cells are present in the epidermis. These mice are obtained by crossing two murine strains: the Langerin DTR EGFP line (Kissenpfennig A, et al. in Trends Immunol. 2006 March; 27(3):132-9. Immunity. 2005 May; 22(5):643-54) maintained at the CNRS centre for distribution, typing and archiving at Orleans, France, and subsequently available from the European Mouse Mutant Archive (EMMA, GSF National Research Centre for Environment and Health, Institute of Experimental Genetics, Ingolstädter Landstrasse 1, D-85764 Neuherberg, Munich, Germany, www.emmanet.org) under the identification number EM:01822, and the CCR6 knockout line, published by Cook et al. in Immunity, 2000, 12: 495-503 and by Lukrs et al. in J. Exp. Med., 2001, 194, 551-555.
The peptide of SEQ ID NO.16 is prepared in DMSO at a concentration of 25 mg/ml. […] The number of (naturally fluorescent) Langerhans cells is counted and the total number of dendritic cells identified by labelling with an anti-CD11c antibody.

| Substance | migration of dendritic cells (migration-inducing activity, migration index) (dendritic cells) | number of dendritic cells (CD11c) and Langerhans cells in auricular lymph nodes, treated side vs DMSO side [1] |
| --- | --- | --- |
| glutathione S-transferase [GST, reference compound] | no activity |  |
| DTGSGGDDSEGAWGGEQQQVQQHGQSEDR (Amino acids 30-58 of the sequence of GRA5 protein from PRU strain of toxoplasma gondii) [SEQ ID NO.16, fragment corresponding to amino acids 30 to 58 of the GRA5-PRU protein, prepared by peptide synthesis] |  | induces the migration of these cells in vivo |
